Laboratory results as given in US20190055267A1, “ORGANOTRIFLUOROBORATE MIMICS OF AMINO ACIDS AND USES THEREOF” (The United States of America, as represented by the …, priority 2015, published 2019).
Where two headings read alike, the source gives them in different places.

Columns and labels:
[1] = Solvolysis of the BF3 moiety in phosphate buffer; assay type: physicochemical
Text: See also, Liu et al., Chem. Eur. J., 2015, 21:3924-8, incorporated herein by reference in its entirety.

[2] = COOH group of the corresponding amino acid; cited from earlier work
amino acid transporters [3] = test: Uptake-concentration kinetics, Michaelis-Menten fitting, in U87MG cells; assay type: cell-based, human; details: 60 min at 37° C. in PBS, read-out: KM/μM, ^18F-AA-BF3 (BAA)
Experimental: The uptake of BAA in U87MG cells was measured at increasing concentrations in phosphate-buffered saline (PBS) and plotted against the concentration of BAA. […] The KM values of ^18F-BAAs were calculated by Michaelis-Menten fitting using Igor Pro 6.22.
The uptake-concentration correlations (FIGS. 12-15) fit well with Michaelis-Menten kinetics, giving the values of Table 4.

U87MG cells = test: In vitro competitive inhibition of boramino acid uptake by natural amino acids and transporter inhibitors; details: for inhibition of uptake by sodium free medium: U87MG cells
Experimental: The U87MG cells were in Dulbecco modified Eagle medium and Minimum Essential Medium under a humidified atmosphere with 5% CO2 at 37° C. The culture media was supplemented with 10% fetal bovine serum, 100 U/mL penicillin, and 100 μg/mL streptomycin. […] Prior to incubation, the cells were washed with phosphate-buffered saline (PBS). […] The cells were then washed 3 times with ice-cold PBS, quenched with 0.1 M of NaOH and the cell-bound radioactivity was counted using a gamma counter. Uptake is defined as percentage of added radioactive dose (% AD).
The control is incubation with BAA only without competitor.

U87MG human glioma cells = assay type: cell-based
HEK293 cells = test: Cell uptake of 18F-Leu-BF3 in HEK293 cells; assay type: cell-based; details: 120 min post incubation
UM22B cells = test: Efflux of radioactivity from cells preloaded with 18F-Leu-BF3; assay type: cell-based; details: UM22B cells loaded 120 min, 120 min post medium incubation
Experimental: ^18F-Leu-BF3 was first incubated with UM22B cells in PBS (phosphate buffered saline) for 120 min then was removed, followed by rapidly rinsing the cells with PBS three times. The cancer cells were incubated in medium essential medium for 10, 30, 60, and 120 min, and the residual radioactivity was measured (FIG. 16). The decreasing residual radioactivity is time-dependent, and most of the radioactive boramino acid was excreted from the cell in 90 min (less than 2% left at 120 min post medium incubation).
The radioactivity from efflux was further analyzed by re-injection into HPLC at 120 min (efflux: excreted from cell; influx: accumulated into cell). Only one peak was observed, and the elution time was corroborative to that for ^18F-Leu-BF3. The elution time here was 15 min, whereas in FIG. 1 the time was 12.5 min. After the data of FIG. 1 was obtained, maintenance was performed on the HPLC, after which the elution time of ^18F-Leu-BF3 on the HPLC was 15 min.

[4] = Metabolic stability in mouse plasma, HPLC analysis; assay type: in vitro ADME; details: mouse plasma at 37° C. for 30 and 120 min
Experimental: To further evaluate the metabolic stability of boramino acid, ^18F-Leu-BF3 was incubated with mouse plasma at 37° C. for 30 and 120 min. After incubation, most of the radioactivity was extracted from the plasma and followed by HPLC analysis.

[5] = In vivo metabolic stability, HPLC analysis of urine and blood samples; details: living animals
Experimental: To further evaluate its in vivo metabolic stability, ^18F-Leu-BF3 was also tested in living animals and followed by HPLC analysis of urine and blood samples.

UM22B xenograft = test: PET imaging and biodistribution in UM22B tumor-bearing mice; assay type: in vivo; details: for bone uptake: PET, tumor-bearing mice; for Average Uptake (% ID/g), blood pool / Average Uptake (% ID/g), hottest voxel cluster of tumor / Average Uptake (% ID/g), kidney / Average Uptake (% ID/g), liver / Average Uptake (% ID/g), muscle / Average Uptake (% ID/g), whole tumor region of interest: UM22B-bearing mice, 120 min after injection
Experimental: All imaging studies were performed as follows. PET scans were obtained and image analysis were performed using an Inveon small-animal PET scanner (Malvern, Pa., USA). About 3.7 MBq of ^18F-AA were administered via tail vein injection under isoflurane anesthesia. […] For dynamic acquisition, 60 min dynamic PET scans were acquired, followed by a late-time-point scans at 2 h after tracer injection. With the acute inflammation model, 10-min static PET images were acquired at 1 h and 2 h after injection. The images were reconstructed using a 3-dimensional ordered subset expectation maximum algorithm, and no correction was applied for attenuation or scatter. For each scan, regions of interest (ROIs) were drawn using vendor software (ASI Pro 5.2.4.0; Siemens Medical Solutions) on decay-corrected whole-body coronal images. The radioactivity concentrations (accumulation) within the tumor, heart, muscle, liver, brain, and kidneys were obtained from mean pixel values within the multiple ROI volumes and then converted to megabecquerel per milliliter. These values were then divided by the administered activity to obtain (assuming a tissue density of 1 g/mL) an image-ROI-derived percentage injected dose per gram (% ID/g).

inflammatory lesion = test: PET imaging in the acute inflammation model; assay type: in vivo, mice; details: compared with 18F-FDG (FIGS. 26-28)
Experimental: (§1) All imaging studies were performed as follows. PET scans were obtained and image analysis were performed using an Inveon small-animal PET scanner (Malvern, Pa., USA). About 3.7 MBq of ^18F-AA were administered via tail vein injection under isoflurane anesthesia. For static acquisition, 10-min static PET scans were acquired at 30, 60 and 120 min after injection. For dynamic acquisition, 60 min dynamic PET scans were acquired, followed by a late-time-point scans at 2 h after tracer injection. With the acute inflammation model, 10-min static PET images were acquired at 1 h and 2 h after injection. The images were reconstructed using a 3-dimensional ordered subset expectation maximum algorithm, and no correction was applied for attenuation or scatter. For each scan, regions of interest (ROIs) were drawn using vendor software (ASI Pro 5.2.4.0; Siemens Medical Solutions) on decay-corrected whole-body coronal images. The radioactivity concentrations (accumulation) within the tumor, heart, muscle, liver, brain, and kidneys were obtained from mean pixel values within the multiple ROI volumes and then converted to megabecquerel per milliliter. These values were then divided by the administered activity to obtain (assuming a tissue density of 1 g/mL) an image-ROI-derived percentage injected dose per gram (% ID/g).

UM22B xenografts [6] = test: PET imaging of 18F-Leu-BF3 co-injected with unlabeled Leu-BF3 (BNCT boron delivery); assay type: in vivo, mice
Experimental: as §1, with “ID/g). […]” for “ID/g).”

UM22B xenografts [7] = test: ICP analysis of boron in tissues after injection; assay type: in vivo, mice; details: 60 min after injection of 10 mg
Experimental: Tumor-bearing mice were sacrificed at 60 min after injection of 10 mg of Leu-BF3. UM22B xenografts are dissolve into nitric acid and the resulting solution are analyzed by ICP.

amino acid transporters [8] = details: natural amino acid, comparison value; read-out: KM/μM, AA; cited from earlier work
system P transporters = details: read-out: KM value, cited from earlier work
[9] = time-activity curves, UM22B tumor-bearing mice (FIGS. 21 and 22)

## F[B-](F)(F)[C@@H]1CCC[NH2+]1 [Pro-BF3]
[1]; half-life in phosphate buffer at pH 7.4
  t1/2/min: 210.58 h
[1]; pK of the first fluorine of the BF3− moiety
  pKB-F: 4.2615
[1]; rate of solvolysis, phosphate buffer pH 7.4
  k (solv)/min^−1: 5.476e-05 min⁻¹
[2]
  pka of corres. COOH: 1.95

## C[C@H]([NH3+])[B-](F)(F)F [^18F-Ala-BF3]
Amino acid transporters [3]
  Km: 468 ± 87.2 µM

## C[C@H]([NH3+])[B-](F)(F)[18F] [^18F-Ala-BF3]
U87MG cells; 18F-Ala-BF3, 60 min incubation
  inhibition of uptake by sodium free medium: 91.1%

## CC(C)C[C@H]([NH3+])[B-](F)(F)F [^18F-Leu-BF3]
Amino acid transporters [3]
  Km: 25.9 ± 2.4 µM

## CC(C)C[C@H]([NH3+])[B-](F)(F)[18F] [^18F-Leu-BF3]
U87MG human glioma cells
  cell uptake: ~7.5 % AD
HEK293 cells
  cell uptake: 10.4 % AD
UM22B cells
  residual radioactivity left in cells: less than 2%
[4]
  defluoridation from boramino acid to boronic acid: almost negligible
[5]
  in vivo metabolic stability: neither participates in protein synthesis nor loses fluoride during in vivo circulation
UM22B xenograft
  bone uptake: undetectable
  Average Uptake (% ID/g), blood pool: 0.47 ± 0.12 % ID/g
  Average Uptake (% ID/g), hottest voxel cluster of tumor: 12.46 ± 3.0 % ID/g
  Average Uptake (% ID/g), kidney: 2.32 ± 0.39 % ID/g
  Average Uptake (% ID/g), liver: 0.83 ± 0.16 % ID/g
  Average Uptake (% ID/g), muscle: 0.09 ± 0.03 % ID/g
  Average Uptake (% ID/g), whole tumor region of interest: 6.72 ± 0.91 % ID/g
UM22B xenograft; comparison of 11C-Leu and 18F-Leu-BF3, one particular mouse (FIGS. 24 and 25)
  tumor uptake, peak voxel cluster value: ~6.5 % ID/g
UM22B xenograft; [9]
  tumor uptake, peak voxel cluster value: ~13 % ID/g
Inflammatory lesion
  uptake in inflammatory lesion: almost negligible
UM22B xenografts [6]; 60 min after injection of <1 μg, 200 μg, 1 mg, 5 mg and 25 mg, by PET imaging
  tumor uptake: ~10 % ID/g
UM22B xenografts [6]; 60 min post-injection, based on calculation
  boron concentration in tumor: up to 30 ppm
UM22B xenografts [7]; ICP analysis
  boron in tumor: 34.5 ppm
UM22B xenografts [7]; boron by ICP analysis
  tumor-to-brain ratio: 13.5

## [NH3+][C@@H](Cc1ccccc1)[B-](F)(F)F [^18F-Phe-BF3]
Amino acid transporters [3]
  Km: 17.6 ± 4.2 µM

## [NH3+][C@@H](Cc1ccccc1)[B-](F)(F)[18F] [^18F-Phe-BF3]
UM22B xenograft
  bone uptake: undetectable
  Average Uptake (% ID/g), blood pool: 2.46 ± 0.50 % ID/g
  Average Uptake (% ID/g), hottest voxel cluster of tumor: 13.29 ± 1.18 % ID/g
  Average Uptake (% ID/g), kidney: 2.13 ± 0.34 % ID/g
  Average Uptake (% ID/g), liver: 2.67 ± 0.44 % ID/g
  Average Uptake (% ID/g), muscle: 2.31 ± 0.44 % ID/g
  Average Uptake (% ID/g), whole tumor region of interest: 7.31 ± 0.78 % ID/g
UM22B xenograft; [9]
  tumor uptake, peak voxel cluster value: approximately 15 % ID/g

## F[B-](F)(F)[C@@H]1CCC[NH2+]1 [^18F-Pro-BF3]
Amino acid transporters [3]
  Km: 65.6 ± 45.2 µM

## F[B-](F)([18F])[C@@H]1CCC[NH2+]1 [^18F-Pro-BF3]
U87MG cells; 18F-Pro-BF3, 60 min incubation
  inhibition of uptake by sodium free medium: 76.2%

## O=C(O)[C@@H]1CCCN1 [proline]
Amino acid transporters [8]
  Km: 67 ± 11.5 µM
System P transporters; system P transporter with high KM
  Km: ~5000 µM
System P transporters; system P transporter with low KM
  Km: ~100 µM
U87MG cells; Homo sapiens, U-87 MG, 1 h, read-out: inhibition of uptake of 18F-Pro-BF3
  inhibition at 25000 µM: ~80%

## ^18F-fluorodeoxyglucose [^18F-FDG, reference compound]
U87MG human glioma cells
  cell uptake: less than 5 % AD
